# Laboratory results: article PMC8389907 (Journal of Medicinal Chemistry, 2021)
# Read-outs that look alike come from different tables or passages of the source.
# Legend:
# MDA-MB231 cells = experiment: MTT cell viability assay, MDA-MB231; format: cell-based; conditions: Homo sapiens, MDA-MB-231
# Description: (§1) The cell lines DU145 (HTB-81, human prostate carcinoma), PC3 (CRL-1435, human prostate adenocarcinoma), MCF7 (HTB-22, human breast adenocarcinoma), MDA-MB231 (HTB-26, human breast adenocarcinoma), and HCT116 (CCL-247, human colorectal carcinoma) were obtained from ATCC (American Type Culture Collection, Manassas, VA, USA); WH1 human fibroblasts were kindly provided by Dr. Guven.[51] All the cells were maintained under standard culture conditions (37 °C; 5% CO2) in the RMPI1640 medium (PC3, MCF7, and MDA-MB231 cells), while DU145 and HCT116 cells were in the DMEM and Iscove’s medium (WH1 cells) supplemented with 10% fetal calf serum, 1% glutamine, and 1% antibiotics mixture; for HCT116 and DU145 cells, 1% sodium pyruvate and 1% non-essential amino acids were also added to the culture medium.
# (§2) The 3-(4,5-dimethylthiazol-2-yl)-2,5-diphenyltetrazolium bromide (MTT) assay was performed on all the cell lines tested as previously described[52] with minor modifications. Briefly, according to the growth profiles previously defined for each cell line, adequate numbers of cells were plated in each well of a 96-well plate in 0.1 mL of complete culture medium. Cells were allowed to attach for 24 h before the treatment at 37 °C for 72 h with the compounds at concentrations ranging between 0.1 and 75 μM, bringing the final volume to 0.2 mL/well. Each experiment included eight replications per concentration tested; control samples were run with 0.2% DMSO. At the end of the incubation period, MTT (0.05 mL of a 2 mg/mL stock solution in PBS) was added to each well for 3 h at 37 °C. Cell supernatants were then carefully removed, the blue formazan crystals formed through MTT reduction by metabolically active cells were dissolved in 0.120 mL of DMSO, and the corresponding optical densities were measured at 570 nm using a Universal Microplate Reader EL800 (Bio-Tek, Winooski, VT).
# (§3) IC50 values were estimated from the resulting concentration–response curves by nonlinear regression analysis using GraphPad Prism software, v. 5.0 (GraphPad, San Diego, CA, USA). Differences between IC50 values were evaluated statistically by analysis of variance with a Bonferroni post-test for multiple comparisons.
# HBL100 cells = experiment: MTT cell viability assay, non-tumorigenic HBL100; format: cell-based; conditions: Homo sapiens, HBL-100, 72 h treatment
# Description: as §2, §3
# HCT116 cells = experiment: MTT cell viability assay, HCT116; format: cell-based; conditions: Homo sapiens, HCT-116
# Description: as §1, §2, §3
# MCF7/ADR cells = experiment: MTT cell viability assay, DOX-resistant MCF7/ADR; format: cell-based, human; conditions: for IC50: Homo sapiens, NCI/ADR-RES, 72 h treatment, MTT; for R.I. (resistance index): MCF7/ADR vs MCF7
# Description: as §2, §3
# MCF7 cells = experiment: MTT cell viability assay, MCF7; format: cell-based; conditions: Homo sapiens
# Description: as §1, §2, §3
# WH1 human fibroblasts = experiment: MTT cell viability assay, WH1 fibroblasts; format: cell-based; conditions: Fibroblast, 72 h treatment
# Description: as §1, §2, §3
# DU145 cells [1] = experiment: MTT cell viability assay, DU145; format: cell-based; conditions: Homo sapiens, DU-145
# Description: as §1, §2, §3
# PC3 cells [2] = experiment: MTT cell viability assay, PC3; format: cell-based; conditions: Homo sapiens, PC-3
# Description: as §1, §2, §3
# DU145 cells [3] = experiment: MTT assay with 1 h irradiation, DU145; format: cell-based, human; conditions: 24 h treatment, 1 h white or blue light, 48 h drug-free medium
# Description: (§4) To evaluate the contribution of NO release on cell viability, the MTT assay was performed on DU145 and PC3 cells following treatment with 7b and 7c with 1 h irradiation and 48 h incubation in a drug-free medium.
# as §3
# PC3 cells [4] = experiment: MTT assay with 1 h irradiation, PC3; format: cell-based, human; conditions: 24 h treatment, 1 h white or blue light, 48 h drug-free medium
# Description: as §4, §3
# [5] = supplement csv, unit inferred, read-out: MDA-MB231 IC50
# [6] = supplement csv, unit inferred, read-out: HCT116 IC50
# [7] = 72 h treatment, MTT, read-out: IC50 MCF7
# [8] = supplement csv, unit inferred, read-out: DU145 IC50
# [9] = supplement csv, unit inferred, read-out: PC3 IC50
# [10] = 72 h treatment, MTT, read-out: IC50 DU145
# [11] = 72 h treatment, MTT, read-out: IC50 MDA-MB231
Compound,melting point,IC50 (MDA-MB231 cells; [5]),IC50 (HCT116 cells; [6]),IC50 (MCF7/ADR cells),IC50 (MCF7 cells; [7]),IC50 (DU145 cells [1]; [8]),IC50 (PC3 cells [2]; [9]),IC50 (DU145 cells [1]; [10]),IC50 (MDA-MB231 cells; [11]),"IC50, irradiated vs kept in the dark, DU145 (DU145 cells [3])","IC50, irradiated vs kept in the dark, PC3 (PC3 cells [4])","IC50 (HCT116 cells; 72 h treatment, MTT, read-out: IC50 HCT116)","IC50 (MCF7 cells; supplement csv, unit inferred, read-out: MCF7 IC50)","IC50 (PC3 cells [2]; 72 h treatment, MTT, read-out: IC50 PC3)",IC50 (HBL100 cells),R.I. (resistance index) (MCF7/ADR cells),IC50 (WH1 human fibroblasts)
"CCn1cc(C(=O)OC)c(=O)c2cc(F)c(N3CCN(CCCNc4ccc([N+](=O)[O-])c(C(F)(F)F)c4)CC3)cc21 [Compound 6d, Methyl 1-Ethyl-6-fluoro-7-(4-(3-((4-nitro-3-(trifluoromethyl)phenyl)amino)propyl)piperazin-1-yl)-4-oxo-1,4-dihydroquinoline-3-carboxylate]",216 to 218 °C,8.89 ± 1.65 µM,11.7 ± 2.1 µM,28 ± 1.1 µM,10.5 ± 1.2 µM,5.49 ± 0.97 µM,4.1 ± 0.61 µM,,,,,,,,3.68 ± 0.2 µM,2.7,9.67 ± 1.65 µM
"COC(=O)c1cn(C2CC2)c2cc(N3CCN(CCNc4ccc([N+](=O)[O-])c(C(F)(F)F)c4)CC3)c(F)cc2c1=O [Compound 6a, Methyl 1-Cyclopropyl-6-fluoro-7-(4-(2-((4-nitro-3-(trifluoromethyl)phenyl)amino)ethyl)piperazin-1-yl)-4-oxo-1,4-dihydroquinoline-3-carboxylate]",231 to 233 °C,16.1 ± 2.1 µM,15.7 ± 2 µM,15.1 ± 2.3 µM,16.8 ± 2.4 µM,4.8 ± 0.96 µM,6.72 ± 0.35 µM,,,,,,,,9.76 ± 0.9 µM,0.9,10.5 ± 2.5 µM
"COC(=O)c1cn(C2CC2)c2cc(N3CCN(c4ccc([N+](=O)[O-])c(C(F)(F)F)c4)CC3)c(F)cc2c1=O [Compound 3a, Methyl 1-Cyclopropyl-6-fluoro-7-(4-(4-nitro-3-(trifluoromethyl)phenyl)piperazin-1-yl)-4-oxo-1,4-dihydroquinoline-3-carboxylate]",265 to 267 °C,10.7 ± 1.9 µM,6.93 ± 1.53 µM,19.6 ± 3.2 µM,15.5 ± 1.2 µM,5.67 ± 0.06 µM,15.9 ± 0.5 µM,,,,,,,,10.6 ± 2.4 µM,1.3,8.38 ± 1.2 µM
"COC(=O)c1cn(C2CC2)c2cc(N3CCN(CCCNc4ccc([N+](=O)[O-])c(C(F)(F)F)c4)CC3)c(F)cc2c1=O [Compound 6b, Methyl 1-Cyclopropyl-6-fluoro-7-(4-(3-((4-nitro-3-(trifluoromethyl)phenyl)amino)propyl)piperazin-1-yl)-4-oxo-1,4-dihydroquinoline-3-carboxylate]",202 to 204 °C,3.76 ± 0.94 µM,5.21 ± 0.73 µM,18.76 ± 0.1 µM,12.1 ± 1.1 µM,14 ± 1.4 µM,3.17 ± 0.47 µM,,,,,,,,12.2 ± 2 µM,1.5,13.2 ± 3.4 µM
"CCn1cc(C(=O)O)c(=O)c2cc(F)c(N3CCN(c4ccc([N+](=O)[O-])c(C(F)(F)F)c4)CC3)cc21 [Compound 1b, 1-Ethyl-6-fluoro-7-(4-(4-nitro-3-(trifluoromethyl)phenyl)piperazin-1-yl)-4-oxo-1,4-dihydroquinoline-3-carboxylic Acid]",310 to 312 °C,6.93 ± 0.85 µM,10.4 ± 1.5 µM,5.63 µM,,2.85 ± 0.01 µM,3.07 ± 0.64 µM,,,,,,5.24 ± 0.7 µM,,9.26 ± 1.79 µM,1.1,5.35 ± 1.14 µM
"CCn1cc(C(=O)OC)c(=O)c2cc(F)c(N3CCN(CCNc4ccc([N+](=O)[O-])c(C(F)(F)F)c4)CC3)cc21 [Compound 6c, Methyl 1-Ethyl-6-fluoro-7-(4-(2-((4-nitro-3-(trifluoromethyl)phenyl)amino)ethyl)piperazin-1-yl)-4-oxo-1,4-dihydroquinoline-3-carboxylate]",245 to 247 °C,11.9 ± 1 µM,12.4 ± 2.9 µM,17.2 ± 1 µM,15.04 ± 0.1 µM,4.77 ± 0.99 µM,9.26 ± 1.29 µM,,,,,,,,10.8 ± 0.6 µM,1.1,10.6 ± 1.9 µM
"CCn1cc(C(=O)OC)c(=O)c2cc(F)c(N3CCN(c4ccc([N+](=O)[O-])c(C(F)(F)F)c4)CC3)cc21 [Compound 3b, Methyl 1-Ethyl-6-fluoro-7-(4-(4-nitro-3-(trifluoromethyl)phenyl)piperazin-1-yl)-4-oxo-1,4-dihydroquinoline-3-carboxylate]",236 to 238 °C,10.2 ± 3.1 µM,9.73 ± 2.25 µM,15 ± 2.1 µM,11.7 ± 1.4 µM,6.06 ± 0.51 µM,15.3 ± 1.2 µM,,,,,,,,12 ± 1.7 µM,1.3,9 ± 1.91 µM
"COc1cccc2c1C(=O)c1c(O)c3c(c(O)c1C2=O)C[C@@](O)(C(=O)CO)C[C@@H]3O[C@H]1C[C@H](N)[C@H](O)[C@H](C)O1 [DOX, doxorubicin, reference compound]",,,,66.9 ± 2.56 µM,,,,,,,,,,,,,
"O=C(O)c1cn(C2CC2)c2cc(N3CCN(c4ccc([N+](=O)[O-])c(C(F)(F)F)c4)CC3)c(F)cc2c1=O [Compound 1a, 1-Cyclopropyl-6-fluoro-7-(4-(4-nitro-3-(trifluoromethyl)phenyl)piperazin-1-yl)-4-oxo-1,4-dihydroquinoline-3-carboxylic Acid]",296 to 298 °C,8.06 ± 1.05 µM,9.67 ± 0.36 µM,8.72 ± 1.25 µM,8.8 ± 1.59 µM,7.78 ± 1.52 µM,6.45 ± 0.19 µM,,,,,,,,7.79 ± 0.66 µM,1.0,9.17 ± 0.6 µM

# The next lines start with results.
melting point,IC50 (MDA-MB231 cells; [5]),IC50 (HCT116 cells; [6]),IC50 (MCF7/ADR cells),IC50 (MCF7 cells; [7]),IC50 (DU145 cells [1]; [8]),IC50 (PC3 cells [2]; [9]),IC50 (DU145 cells [1]; [10]),IC50 (MDA-MB231 cells; [11]),"IC50, irradiated vs kept in the dark, DU145 (DU145 cells [3])","IC50, irradiated vs kept in the dark, PC3 (PC3 cells [4])","IC50 (HCT116 cells; 72 h treatment, MTT, read-out: IC50 HCT116)","IC50 (MCF7 cells; supplement csv, unit inferred, read-out: MCF7 IC50)","IC50 (PC3 cells [2]; 72 h treatment, MTT, read-out: IC50 PC3)",Compound,IC50 (HBL100 cells),R.I. (resistance index) (MCF7/ADR cells),IC50 (WH1 human fibroblasts)
,3.64 ± 0.63 µM,5.36 ± 0.65 µM,20 ± 0.3 µM,5.83 ± 0.82 µM,,4.83 ± 1.15 µM,1.56 µM,,,,,,,"CCn1cc(C(=O)O)c(=O)c2cc(F)c(N3CCN(CCCNc4ccc([N+](=O)[O-])c(C(F)(F)F)c4)CC3)cc21 [Compound 7d, 1-Ethyl-6-fluoro-7-(4-(3-((4-nitro-3-(trifluoromethyl)phenyl)amino)propyl)piperazin-1-yl)-4-oxo-1,4-dihydroquinoline-3-carboxylic Acid]",10.4 ± 0.9 µM,3.4,8.94 ± 0.91 µM
,2.51 ± 0.43 µM,,23.6 ± 3.6 µM,5.23 ± 0.82 µM,2.42 ± 0.9 µM,3.02 ± 0.59 µM,< 3 µM,< 2.5 µM,no differences in IC50 values,no differences in IC50 values,1.83 µM,,,"O=C(O)c1cn(C2CC2)c2cc(N3CCN(CCCNc4ccc([N+](=O)[O-])c(C(F)(F)F)c4)CC3)c(F)cc2c1=O [Compound 7b, 1-Cyclopropyl-6-fluoro-7-(4-(3-((4-nitro-3-(trifluoromethyl)phenyl)amino)propyl)piperazin-1-yl)-4-oxo-1,4-dihydroquinoline-3-carboxylic Acid]",9.19 ± 0.66 µM,4.5,7.05 ± 1.2 µM
,2.24 ± 0.18 µM,5.29 ± 0.72 µM,14.7 ± 4.2 µM,3.12 ± 0.62 µM,2.56 ± 0.21 µM,2.48 ± 0.42 µM,< 3 µM,< 2.5 µM,,,,,< 3 µM,"O=C(O)c1cn(C2CC2)c2cc(N3CCN(CCNc4ccc([N+](=O)[O-])c(C(F)(F)F)c4)CC3)c(F)cc2c1=O [Compound 7a, 1-Cyclopropyl-6-fluoro-7-(4-(2-((4-nitro-3-(trifluoromethyl)phenyl)amino)ethyl)piperazin-1-yl)-4-oxo-1,4-dihydroquinoline-3-carboxylic Acid]",9.14 ± 0.44 µM,4.7,5.7 ± 0.92 µM
